From patent US20160312315A1, “Methods and Compositions for Determining Virus Susceptibility to Integrase Inhibitors” (Laboratory Corporation of America Holdings, priority 2011, published 2016)

Legend:
Type in all cases: cell-based, HIV-1
[1] = test system: other Y143X plus T97A site directed mutant viruses
Experimental: (§1) Raltegravir susceptibility tests performed with resistance test vectors were carried out using packaging host and target host cells consisting of the human embryonic kidney cell line 293. Susceptibility tests were carried out with the RTV libraries by using viral particles comprising the RTV libraries to infect a host cell in which the expression of the indicator gene is measured. The amount of indicator gene (luciferase) activity detected in infected cells is used as a direct measure of “infectivity,” i.e., the ability of the virus to complete a single round of replication. Thus, drug susceptibility can be determined by plotting the amount of luciferase activity produced by patient derived viruses in the presence of varying concentrations of the antiviral drug. By identifying the concentration of drug at which luciferase activity is half-maximum, the IC50 of the virus from which patient-derived segment(s) were obtained for the antiretroviral agent can be determined. […]
(§2) In the susceptibility tests, packaging host (293) cells were seeded in 10-cm-diameter dishes and were transfected one day after plating with test vector plasmid DNA and the envelope expression vector. […] Alternatively, cells were lysed, and luciferase was measured by adding Steady-Glo (Promega Corp.; Madison, Wis.) reagent directly to each well without aspirating the culture media from the well. […]

[2] = test system: Y143R plus S230R site directed mutant virus; test: PhenoSense raltegravir susceptibility assay, site directed mutant viruses; details: SDM virus, compared with Y143R alone
Experimental: as §1, §2

[3] = test system: Y143C/G/S plus S230R site directed mutant viruses; test: as above; details: SDM viruses vs NL4-3
Experimental: as §1, §2

[4] = test system: other Y143X (Y143H/C/S/G) site directed mutant viruses; test: as above; details: other Y143X substitutions alone, SDM viruses vs NL4-3
Experimental: (§3) Raltegravir susceptibility tests performed with resistance test vectors were carried out using packaging host and target host cells consisting of the human embryonic kidney cell line 293. Susceptibility tests were carried out with the RTV libraries by using viral particles comprising the RTV libraries to infect a host cell in which the expression of the indicator gene is measured. The amount of indicator gene (luciferase) activity detected in infected cells is used as a direct measure of “infectivity,” i.e., the ability of the virus to complete a single round of replication. Thus, drug susceptibility can be determined by plotting the amount of luciferase activity produced by patient derived viruses in the presence of varying concentrations of the antiviral drug. By identifying the concentration of drug at which luciferase activity is half-maximum, the IC50 of the virus from which patient-derived segment(s) were obtained for the antiretroviral agent can be determined. The IC50 provides a direct measure of the susceptibility of the HIV infecting the patient to raltegravir.
as §2, with “vector. Transfections were performed using a calcium-phosphate co-precipitation procedure. The cell culture media containing the DNA precipitate was replaced with fresh medium, from one to 24 hours, after transfection.” for “vector.”
(§4) Site directed mutant (SDM) viruses were created that had only the specific integrase mutation listed on the x-axis of FIG. 8A, 8B, or 8C. FIGS. 8A, 8B, and 8C are graphs showing the fold change (FC) in raltegravir susceptibility of the SDM viruses, as compared to the raltegravir susceptibility of an NL4-3 virus and determined by the PhenoSense assay. […]

[5] = test system: Y143R site directed mutant virus; test: as above; details: Y143R mutation alone, SDM virus vs NL4-3
Experimental: as §3
as §2, with “vector. Transfections were performed using a calcium-phosphate co-precipitation procedure. The cell culture media containing the DNA precipitate was replaced with fresh medium, from one to 24 hours, after transfection.” for “vector.”
as §4

[6] = test system: Y143R plus T97A site directed mutant virus; test: as above; details: SDM virus vs NL4-3
Experimental: as §3
as §2, with “vector. Transfections were performed using a calcium-phosphate co-precipitation procedure. The cell culture media containing the DNA precipitate was replaced with fresh medium, from one to 24 hours, after transfection.” for “vector.”
as §4

Cc1nnc(C(=O)NC(C)(C)c2nc(C(=O)NCc3ccc(F)cc3)c(O)c(=O)n2C)o1 [raltegravir]
fold change in IC50 (FC), reduction in RAL susceptibility [1]: 7-16 | further reduction in RAL susceptibility on addition of S230R [2]: did not | fold change in IC50 (FC), reduction in RAL susceptibility [3]: 15-24 | fold change in IC50 (FC), reduction in RAL susceptibility [4]: 3-6 | fold change in IC50 (FC), reduction in RAL susceptibility [5]: 20 | fold change in IC50 (FC), reduction in RAL susceptibility [6]: 70
